Measured values: patent US10571448B2, “Method and system for comprehensive evaluation of organic compound and heavy metal pollution in water based on fish electrocardio” (priority 2018, dated 2020)

Tests used:
[1] = tested on: koi; assay: 48 h semi-lethal concentration of heavy metal solutions for koi; conditions: recorded as 1 toxic unit (1 TU)
[2] = tested on: zebrafish; assay: 48 h medial lethal concentration of deltamethrin for zebrafish; type: in vivo; conditions: recorded as 1 toxic unit (1 TU)
From the text: Three zebrafishes were used in each exposed group.

[3] = tested on: zebrafish; assay: Zebrafish electro-cardio indexes under deltamethrin exposure, with Pearson correlation to environmental stress E; conditions: as concentration increased (0.52, 2, 2.6 μg/L), 0-48 h
Procedure: Fish electro-cardio signals respectively before and after the fish is exposed to a solution containing a specific organic compound are gathered by the real-time and miniaturized fish electro-cardio acquisition system, and various electro-cardio indexes are respectively extracted.
The correlation between environmental stress and respective extracted electro-cardio indexes is analyzed according to Pearson Correlation Analysis to select an electro-cardio index suitable for the assessment of water quality with respect to this specific organic compound.
A linear regression model between the environmental stress and respective electro-cardio indexes is analyzed and assessed according to Akaike Information Criterion and the sum of square error to finally obtain an electro-cardio index suitable for the assessment of water quality with respect to the specific organic compound.
In the present method, the real-time electro-cardio signals were acquired from multiple fishes respectively exposed to different concentrations of the specific organic compound. Firstly, the zebrafish was exposed to an organic solvent deltamethrin solution. […]
The acquired electro-cardiographs were subjected to filtering and interference removal to become clearer; the analyzed data was processed, and then was analyzed by Matlab software and SPSS software to estimate the electro-cardio changes based on data differences. […]

| SMILES | 48 h semi-lethal concentration [1] [mg/L] | 48 h medial lethal concentration [2] [µg/L] | PR interval, QRS interval, ST interval and QT interval [3] | amplitudes of P-wave, Q-wave, R-wave, S-wave and T-wave [3] |
| --- | --- | --- | --- | --- |
| [Cl][Hg][Cl] [mercury chloride] | 0.13 | – | – | – |
| CC1(C)[C@H](C(=O)O[C@H](C#N)c2cccc(Oc3ccccc3)c2)[C@@H]1C=C(Br)Br [deltamethrin] | – | 5.2 | increased | decreased |
| [Mn+2] [manganese] | 2.75 | – | – | – |
| [Cl][Cd][Cl] [cadmium chloride] | 23.6 | – | – | – |
